How the values were obtained:
rice [1] = assay: Test B flooded paddy test; type: in vivo, Oryza sativa; conditions: 1000 g ai/ha, visual rating, scale 0 to 100 (0 no effect, 100 complete control), 13 to 15 days
How it was run: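 After treating 2-leaf paddy plants or 2–18 cm postemergence plants (1 to 4 leaves) with formulated chemical, researchers kept them in a greenhouse for 13–15 days. Effects were judged visually versus controls: 0 indicates none, 100 total control.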

pigweed = assay: Test B pre-/postemergence herbicide test; type: in vivo, Amaranthus retroflexus; conditions: for Pigweed plant response rating: postemergence
How it was run: (§1)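 Flooded paddy rice and barnyardgrass were treated at the 2-leaf stage; upland plantings received compound either on sown seed or on 1- to 4-leaf seedlings. All were kept 13–15 days in a greenhouse and scored visually, 0–100, relative to untreated plants.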

[2] = test system: smallflower umbrella sedge; assay: Test C flooded paddy test; type: in vivo, Cyperus difformis; conditions: for Plant response rating, Sedge, Umbrella: visual rating after 12 to 14 days
morningglory = assay: Test B pre-/postemergence herbicide test; type: in vivo, Ipomoea coccinea; conditions: for Morningglory plant response rating: postemergence
How it was run: (§2)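 Pre: seeds sown, then sprayed. Post: 1–4-leaf plants (2–18 cm) sprayed at the same time. Paddy: flooded, treated at 2-leaf stage. Formulation: non-phytotoxic solvent with surfactant. Greenhouse 13–15 days; visual 0–100 score relative to controls.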

ducksalad [3] = assay: Test C flooded paddy test; type: in vivo, Heteranthera limosa; conditions: for Plant response rating, Ducksalad: visual rating after 12 to 14 days
velvetleaf = assay: Test B pre-/postemergence herbicide test; type: in vivo, Abutilon theophrasti; conditions: for Velvetleaf plant response rating: postemergence
How it was run: as §1

corn = assay: Test B pre-/postemergence herbicide test; type: in vivo, Zea mays; conditions: for Corn plant response rating: postemergence
How it was run: as §1

giant foxtail = assay: Test B pre-/postemergence herbicide test; type: in vivo, Setaria faberi; conditions: for Foxtail, Giant plant response rating: postemergence
How it was run: as §1

large crabgrass = assay: Test B pre-/postemergence herbicide test; type: in vivo, Digitaria sanguinalis; conditions: for Crabgrass, Large plant response rating: postemergence
How it was run: as §1

wheat = assay: Test B postemergence herbicide test; type: in vivo, Triticum aestivum; parameters: key to Wheat plant response rating: 0 = no effect, 100 = complete control; conditions: postemergence
How it was run: (§3)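 Greenhouse test; postemergence application to plants at 1–4 leaves (2–18 cm); paddy species at 2 leaves; evaluated visually vs controls at 13–15 days; scale 0–100 (100 = complete control).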

rice [4] = assay: Test C flooded paddy test; type: in vivo, Oryza sativa; conditions: for Plant response rating, Rice: visual rating after 12 to 14 days
How it was run: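 Injury scored visually against controls on a 0 (no effect) to 100 (complete control) scale, 12 to 14 days after treatment in greenhouse. Flooded paddy plants treated at 2-leaf stage; postemergence plants at 1- to 4-leaf stage, 2 to 18 cm tall.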

Surinam grass = assay: Test B pre-/postemergence herbicide test; type: in vivo, Urochloa decumbens; conditions: for Surinam Grass plant response rating: postemergence
How it was run: as §1

[5] = test system: small flower umbrella sedge; assay: Test B flooded paddy test; type: in vivo, Cyperus difformis; conditions: 1000 g ai/ha, visual rating, scale 0 to 100 (0 no effect, 100 complete control), 13 to 15 days
How it was run: (§4)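 Read-out: visual comparison with controls, scored 0 to 100, where 100 means complete control and 0 no effect. Formulated chemicals were applied postemergence to plants 2–18 cm tall (1- to 4-leaf), or to flooded-paddy plants at the 2-leaf stage, then held 13 to 15 days under glass.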

barnyardgrass [6] = assay: Test B pre-/postemergence herbicide test; type: in vivo, Echinochloa crus-galli; conditions: for Barnyardgrass plant response rating: postemergence
How it was run: as §2

cocklebur = assay: Test B pre-/postemergence herbicide test; type: in vivo, Xanthium strumarium; conditions: for Cocklebur plant response rating: postemergence
How it was run: as §2

wild oat = assay: Test B postemergence herbicide test; type: in vivo, Avena fatua; conditions: postemergence
How it was run: as §3

barnyardgrass [7] = assay: Test B flooded paddy test; type: in vivo, Echinochloa crus-galli; conditions: 1000 g ai/ha, visual rating, scale 0 to 100 (0 no effect, 100 complete control), 13 to 15 days
How it was run: as §4

barnyardgrass [8] = assay: Test C flooded paddy test; type: in vivo, Echinochloa crus-galli; conditions: for Plant response rating, Barnyardgrass: visual rating after 12 to 14 days
How it was run: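 Plants were grown to the 1- to 4-leaf stage (2–18 cm) and then treated postemergence, or grown to the 2-leaf stage for the flooded paddy test. They were held in a greenhouse for 12 to 14 days and then scored by eye against controls, where 0 is no effect and 100 is complete control.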

rice [9] = assay: Test B pre-/postemergence herbicide test; type: in vivo, Oryza sativa; conditions: preemergence, 125 g ai/ha; 0 to 100 scale, 0 is no effect, 100 is complete control
How it was run: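 Evaluation is visual, comparing treated with control plants on a scale where 0 means no effect and 100 means full control. Treatments were preemergence, or postemergence on seedlings 2–18 cm tall, and held 13–15 days in the greenhouse.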

lambsquarters = assay: Test B pre-/postemergence herbicide test; type: in vivo, Chenopodium album; conditions: for Lambsquarters plant response rating: postemergence
How it was run: as §1

ducksalad [10] = assay: Test B flooded paddy test; type: in vivo, Heteranthera limosa; conditions: 1000 g ai/ha, visual rating, scale 0 to 100 (0 no effect, 100 complete control), 13 to 15 days
How it was run: as §4

blackgrass = assay: Test B postemergence herbicide test; type: in vivo, Alopecurus myosuroides; conditions: postemergence
How it was run: as §4

[11] = 125 g ai/ha, visual rating, scale 0 (no effect) to 100 (complete control)
[12] = preemergence, 125 g ai/ha, 0 to 100 scale, 0 is no effect, 100 is complete control
[13] = 62 g ai/ha, scale 0 to 100 (0 no effect, 100 complete control)
[14] = 125 g ai/ha, scale of 0 to 100, 0 is no effect, 100 is complete control
[15] = 250 g ai/ha, scale 0 to 100 (0 no effect, 100 complete control)
[16] = 500 g ai/ha, scale 0 to 100 (0 no effect, 100 complete control)

Structure (SMILES): CCn1nc(C(C)(C)C)cc1C(=O)Nc1cccc(C(=O)N(C)C)c1 [Compound 49]
- Rice plant response rating (rice [1]): 30
- Pigweed plant response rating (pigweed; [11]): 30
- Pigweed plant response rating (pigweed; 31 g ai/ha, scale 0 to 100): 10
- Plant response rating, Pigweed (pigweed; [12]): 90
- Sedge, Umbrella plant response rating [2, 13]: 45
- Sedge, Umbrella plant response rating [2, 14]: 45
- Plant response rating, Sedge, Umbrella [2, 15]: 80
- Plant response rating, Sedge, Umbrella [2, 16]: 80
- Morningglory plant response rating (morningglory; [11]): 0
- Morningglory plant response rating (morningglory; 31 g ai/ha, scale 0 to 100): 0
- Plant response rating, Morningglory (morningglory; [12]): 0
- Ducksalad plant response rating (ducksalad [3]; [13]): 0
- Ducksalad plant response rating (ducksalad [3]; [14]): 50
- Plant response rating, Ducksalad (ducksalad [3]; [15]): 80
- Plant response rating, Ducksalad (ducksalad [3]; [16]): 80
- Velvetleaf plant response rating (velvetleaf; [11]): 30
- Velvetleaf plant response rating (velvetleaf; 31 g ai/ha, scale 0 to 100): 10
- Plant response rating, Velvetleaf (velvetleaf; [12]): 0
- Corn plant response rating (corn; [11]): 20
- Corn plant response rating (corn; 31 g ai/ha, scale 0 to 100): 10
- Plant response rating, Corn (corn; [12]): 0
- Foxtail, Giant plant response rating (giant foxtail; [11]): 10
- Foxtail, Giant plant response rating (giant foxtail; 31 g ai/ha, scale 0 to 100): 0
- Plant response rating, Foxtail, Giant (giant foxtail; [12]): 0
- Crabgrass, Large plant response rating (large crabgrass; [11]): 10
- Crabgrass, Large plant response rating (large crabgrass; 31 g ai/ha, scale 0 to 100): 10
- Plant response rating, Crabgrass, Large (large crabgrass; [12]): 20
- Wheat plant response rating (wheat; [11]): 0
- Wheat plant response rating (wheat; 31 g ai/ha, scale 0 to 100): 0
- Rice plant response rating (rice [4]; [13]): 15
- Rice plant response rating (rice [4]; [14]): 25
- Plant response rating, Rice (rice [4]; [15]): 70
- Plant response rating, Rice (rice [4]; [16]): 90
- Surinam Grass plant response rating (Surinam grass; [11]): 10
- Surinam Grass plant response rating (Surinam grass; 31 g ai/ha, scale 0 to 100): 10
- Plant response rating, Surinam Grass (Surinam grass; [12]): 10
- Sedge, Umbrella plant response rating [5]: 80
- Barnyardgrass plant response rating (barnyardgrass [6]; [11]): 30
- Barnyardgrass plant response rating (barnyardgrass [6]; 31 g ai/ha, scale 0 to 100): 10
- Plant response rating, Barnyardgrass (barnyardgrass [6]; [12]): 30
- Cocklebur plant response rating (cocklebur; [11]): 20
- Cocklebur plant response rating (cocklebur; 31 g ai/ha, scale 0 to 100): 10
- Plant response rating, Cocklebur (cocklebur; [12]): 0
- Oat, Wild plant response rating (wild oat; [11]): 10
- Oat, Wild plant response rating (wild oat; 31 g ai/ha, scale 0 to 100): 0
- Barnyardgrass plant response rating (barnyardgrass [7]): 70
- Barnyardgrass plant response rating (barnyardgrass [8]; [13]): 45
- Barnyardgrass plant response rating (barnyardgrass [8]; [14]): 60
- Plant response rating, Barnyardgrass (barnyardgrass [8]; [15]): 70
- Plant response rating, Barnyardgrass (barnyardgrass [8]; [16]): 80
- Plant response rating, Rice (rice [9]): 40
- Lambsquarters plant response rating (lambsquarters; [11]): 50
- Lambsquarters plant response rating (lambsquarters; 31 g ai/ha, scale 0 to 100): 20
- Plant response rating, Lambsquarters (lambsquarters; [12]): 70
- Ducksalad plant response rating (ducksalad [10]): 80
- Blackgrass plant response rating (blackgrass; [11]): 0
- Blackgrass plant response rating (blackgrass; 31 g ai/ha, scale 0 to 100): 0

From patent US20060069132A1, “Azolecarboxamide herbicides” (priority 2004, published 2006)
